Assay type in all cases: in vivo
Series [1] deals with Zea mays. Briefly: Crop compatibility post-emergence (greenhouse pot trial). A digest of the protocol:
(§1)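 Visual % damage vs untreated controls, ~3 wk post-spray (100% = plants died, 0% = as control). Plants in sandy loam, greenhouse, sprayed at one-leaf stage (2–3 wk after sowing); WP/EC in water + 0.5% additive, 600 L/ha.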

For series [2], the system named is Oryza sativa. The description is as above. Particulars: application rate 20 g/ha. A digest of the protocol:
as §1

The test system of series [3] is Triticum aestivum. Described as above. Particulars: application rate 20 g/ha. In short, it runs like this: as §1
Series [4] deals with Matricaria inodora. Briefly: Herbicidal action post-emergence (greenhouse pot trial). As to conditions: application rate 20 g/ha, scored visually after about 3 weeks vs untreated controls. In short, it runs like this: (§2)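 Weed seeds sown in sandy loam were grown in a greenhouse for 2–3 weeks and treated at the one-leaf stage. WP or EC formulations, with 0.5% additive, were sprayed on green parts at a water rate of 600 L/ha and at 80 g/ha or lower. Efficacy was scored visually about 3 weeks later against untreated controls.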

Series [5] has as its system Amaranthus retroflexus. The description is as above. As to conditions: application rate 20 g/ha, scored visually after about 3 weeks vs untreated controls. In short, it runs like this: as §2
In series [6] the test system is Abutilon theophrasti. The description is as above. Particulars: application rate 20 g/ha, scored visually after about 3 weeks vs untreated controls. In short, it runs like this: as §2
Series [7] has as its system Polygonum convolvulus. Described as above. As to conditions: application rate 20 g/ha, scored visually after about 3 weeks vs untreated controls. In short, it runs like this: as §2
For series [8], the system named is Viola tricolor. The series is described as above. Particulars: application rate 20 g/ha. In short, it runs like this:
as §2

Series [9] relates to Veronica persica. Described as above. As to conditions: application rate 20 g/ha. A digest of the protocol:
as §2

The subject of series [10] is Matricaria inodora. Briefly: Herbicidal action pre-emergence (greenhouse pot trial). Particulars: application rate 80 g/ha, scored after about 3 weeks. In short, it runs like this:
(§3)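 Pre-emergence: WP or EC formulations sprayed onto covering soil over sown seeds as aqueous suspension/emulsion with 0.5% additive, 600 L/ha water, at 320 g/ha or lower. Visual percent efficacy versus untreated controls after about 3 weeks in greenhouse (100% = plants dead).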

Series [11] deals with Amaranthus retroflexus. Described as above. Particulars: application rate 80 g/ha, scored after about 3 weeks. In short, it runs like this:
as §3

The test system of series [12] is Abutilon theophrasti. The series is described as above. Particulars: application rate 80 g/ha, scored after about 3 weeks. In short, it runs like this:
as §3

In series [13] the test system is Polygonum convolvulus. The series is described as above. Particulars: application rate 80 g/ha, scored after about 3 weeks. In short, it runs like this: as §3
Series [14] has as its system Viola tricolor. The series is described as above. Particulars: application rate 80 g/ha, scored after about 3 weeks. In short, it runs like this: as §3
Series [15] has as its system Veronica persica. Described as above. As to conditions: application rate 80 g/ha. A digest of the protocol: as §3
Series [16] deals with Zea mays. Briefly: Crop compatibility pre-emergence (greenhouse pot trial). As to conditions: application rate 80 g/ha, effect vs untreated controls. A digest of the protocol:
(§4)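 Compounds, formulated as WP or EC plus 0.5% additive, applied to covering soil after sowing at a water rate of 600 L/ha. After roughly 3 weeks under greenhouse conditions, visual % injury to crops rated against untreated plants, 0% meaning like control.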

Series [17] relates to Glycine max. The description is as above. Particulars: application rate 80 g/ha, effect vs untreated controls. A digest of the protocol: as §4
The subject of series [18] is Stellaria media. Briefly: Herbicidal action post-emergence (greenhouse pot trial). Particulars: application rate 20 g/ha, scored visually after about 3 weeks vs untreated controls. A digest of the protocol:
as §2

For series [19], the system named is Pharbitis purpurea. The description is as above. As to conditions: application rate 20 g/ha. In short, it runs like this:
as §2

The test system of series [20] is Setaria viridis. The description is as above. As to conditions: application rate 20 g/ha, scored visually after about 3 weeks vs untreated controls. A digest of the protocol: as §2
In series [21] the test system is Digitaria sanguinalis. Described as above. As to conditions: application rate 20 g/ha. In short, it runs like this:
as §2

The test system of series [22] is Echinochloa crus-galli. The description is as above. Particulars: application rate 20 g/ha, scored visually after about 3 weeks vs untreated controls. In short, it runs like this:
as §2

The test system of series [23] is Stellaria media. Briefly: Herbicidal action pre-emergence (greenhouse pot trial). Particulars: application rate 80 g/ha, scored after about 3 weeks. In short, it runs like this:
as §3

Series [24] deals with Pharbitis purpurea. The series is described as above. As to conditions: application rate 80 g/ha. In short, it runs like this: as §3
The subject of series [25] is Setaria viridis. The description is as above. As to conditions: application rate 80 g/ha, scored after about 3 weeks. In short, it runs like this: as §3
In series [26] the test system is Digitaria sanguinalis. Described as above. As to conditions: application rate 80 g/ha. A digest of the protocol:
as §3

In series [27] the test system is Echinochloa crus-galli. Described as above. Particulars: application rate 80 g/ha, scored after about 3 weeks. In short, it runs like this:
as §3

The test system of series [28] is Oryza sativa. Briefly: Crop compatibility pre-emergence (greenhouse pot trial). As to conditions: application rate 20 g/ha, effect vs untreated controls. A digest of the protocol: as §4

For `CC(Sc1cc(-n2c(=O)cc(C(F)(F)F)n(C)c2=O)c(F)cc1Cl)C(=O)OCC1CCCS1` (stereo not drawn) [I.1-81], the “Zea mays (Efficacy in %)” value in [1] (application rate 20 g/ha) is recorded as 10%; in series [16] it was 0%. In series [2], the “Oryza sativa (Efficacy in %)” value turned out to be 0%. Moreover, in series [3], the “Triticum aestivum (Efficacy in %)” value is reported as 20%. Moreover, the figures for the “Matricaria inodora (Efficacy in %)” value in series [4] and in series [10] were 90% and 80%, respectively. The “Amaranthus retroflexus (Efficacy in %)” value in [5] and in series [11] was 100% each time. Moreover, the “Abutilon theophrasti (Efficacy in %)” value in [6] and in series [12] was 100% throughout. For the same compound, the “Polygonum convolvulus (Efficacy in %)” value in series [7] stood at 90%; in series [13], 100%. Moreover, the “Viola tricolor (Efficacy in %)” value in series [8] and in [14] was 100% throughout. In addition, the results for the “Veronica persica (Efficacy in %)” value in series [9] and in [15] were 100% and 80%, respectively. Also, the “Glycine max (Efficacy in %)” value in [17] was 0%.

In the case of `CCC(Sc1cc(-n2c(=O)cc(C(F)(F)F)n(C)c2=O)c(F)cc1Cl)C(=O)OCC1CCCO1` (stereo not drawn) [I.2-71], the “Zea mays (Efficacy in %)” value turned out to be 0% in series [1] (application rate 5 g/ha) and 10% in series [16]. Also, the “Oryza sativa (Efficacy in %)” value was 20% in series [2] and 0% in [28]. Also, the “Triticum aestivum (Efficacy in %)” value in series [3] stood at 20%. Further, the “Matricaria inodora (Efficacy in %)” value in [4] and in series [10] was 100% in each case. For the same compound, the “Amaranthus retroflexus (Efficacy in %)” value in [5] and in series [11] was 100% throughout. The “Stellaria media (Efficacy in %)” value in [18] and in [23] was 100% in each case. In addition, the “Abutilon theophrasti (Efficacy in %)” value in series [6] and in [12] was 100% in each case. The “Polygonum convolvulus (Efficacy in %)” value in series [7] and in series [13] was 100% in each case. Also, the “Pharbitis purpurea (Efficacy in %)” value in series [19] and in series [24] was 100% each time. The “Viola tricolor (Efficacy in %)” value in series [8] and in [14] was 100% in each case. In addition, the “Setaria viridis (Efficacy in %)” value in [20] amounted to 90%; in [25], 100%. For the same compound, the “Veronica persica (Efficacy in %)” value in series [9] and in [15] was 100% in each case. Besides, the “Digitaria sanguinalis (Efficacy in %)” value in series [21] and in [26] was 100% each time. Further, the “Echinochloa crus-galli (Efficacy in %)” value worked out at 80% in series [22] and 100% in [27]. For the same compound, in [17], the “Glycine max (Efficacy in %)” value stood at 0%.

Source of the values: US11497212B2, “Substituted thiophenyl uracils, salts thereof and the use thereof as herbicidal agents” (Syngenta Crop Protection AG, priority 2017, dated 2022).
